# Assay results as given in patent US7932270B2 (Cytokinetics, Inc., priority 2006, dated 2011).
# Biological target: T1, chicken gizzard smooth muscle myosin subfragment-1 chemically crosslinked to cardiac or skeletal actin (Gallus gallus, UniProt P10587)
# T1 construct: chicken gizzard smooth muscle myosin subfragment-1; from tissue; host or cells: chicken gizzard
# Assay: Smooth muscle myosin ATPase dose response assay (pyruvate kinase/horseradish peroxidase/pyruvate oxidase-coupled, amplex red fluorescence)
# Format: biochemical
# Details: read-out: IC50 Arithmetic Mean
# In short: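 Chicken gizzard myosin S1 crosslinked to cardiac or skeletal actin, titrated to a set hydrolysis rate; 0.15 mM ATP, 12 mM PIPES pH 7.00, 100 mM KCl, 2 mM MgCl2. Pyruvate kinase/pyruvate oxidase/HRP coupling with amplex red fluorescence; IC50 from 4-parameter fit.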
# T1 sequence (P02607 2-151): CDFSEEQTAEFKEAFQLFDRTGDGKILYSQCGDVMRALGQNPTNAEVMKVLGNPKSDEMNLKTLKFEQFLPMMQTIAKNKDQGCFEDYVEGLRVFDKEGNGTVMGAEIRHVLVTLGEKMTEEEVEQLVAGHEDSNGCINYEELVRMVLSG
# T1 sequence (P10587 84-789): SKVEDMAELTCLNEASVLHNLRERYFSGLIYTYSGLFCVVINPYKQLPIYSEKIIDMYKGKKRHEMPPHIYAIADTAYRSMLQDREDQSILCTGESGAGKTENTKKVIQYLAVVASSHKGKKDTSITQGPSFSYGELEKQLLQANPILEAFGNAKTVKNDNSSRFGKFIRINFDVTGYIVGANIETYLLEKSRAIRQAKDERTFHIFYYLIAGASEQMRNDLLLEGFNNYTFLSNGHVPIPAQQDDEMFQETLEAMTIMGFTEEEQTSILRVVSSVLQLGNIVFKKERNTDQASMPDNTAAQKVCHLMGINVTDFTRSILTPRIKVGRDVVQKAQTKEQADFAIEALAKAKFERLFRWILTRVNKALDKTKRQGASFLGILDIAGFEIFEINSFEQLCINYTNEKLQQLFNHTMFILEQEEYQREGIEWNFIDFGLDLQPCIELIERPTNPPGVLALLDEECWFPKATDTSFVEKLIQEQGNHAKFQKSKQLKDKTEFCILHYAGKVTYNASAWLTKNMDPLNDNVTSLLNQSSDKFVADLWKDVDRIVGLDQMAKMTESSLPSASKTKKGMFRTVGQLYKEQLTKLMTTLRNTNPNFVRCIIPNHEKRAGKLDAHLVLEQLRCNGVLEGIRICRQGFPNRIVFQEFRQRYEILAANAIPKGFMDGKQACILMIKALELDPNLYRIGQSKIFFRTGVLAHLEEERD
row,IC50 [nM],Compound
1,12200,N#Cc1ccccc1-c1ccc(C(=O)NC[C@H]2CNCCN2)c(NCCc2cccc(F)c2)n1 [N-[((2R)piperazin-2-yl)methyl](6-(2-cyanophenyl)-2-{[2-(3-fluorophenyl)ethyl]amino}(3-pyridyl))carboxamide]
2,6720,CN1CCN(C(=O)CCCN)C[C@@H]1CNC(=O)c1ccc(-c2ccccc2C#N)nc1NCCc1cccc(F)c1 [N-{[(2S)-4-(4-aminobutanoyl)-1-methylpiperazin-2-yl]methyl}(6-(2-cyanophenyl)-2-{[2-(3-fluorophenyl)ethyl]amino}(3-pyridyl))carboxamide]
3,133,N#Cc1ccccc1-c1ccc(C(=O)NC[C@H]2CCCN2C(=O)CCCN)c(NCCC2=CCCCC2)n1 [N-{[(2R)-1-(4-aminobutanoyl)pyrrolidin-2-yl]methyl}{6-(2-cyanophenyl)-2-[(2-cyclohex-1-enylethyl)amino](3-pyridyl)}carboxamide]
4,53,C[C@H](N)C(=O)N1CCC[C@@H]1CNC(=O)c1ccc(-c2ccccc2C#N)nc1NCCc1cccc(F)c1 [N-{[(2R)-1-((2S)-2-aminopropanoyl)pyrrolidin-2-yl]methyl}(6-(2-cyanophenyl)-2-{[2-(3-fluorophenyl)ethyl]amino}(3-pyridyl))carboxamide]
5,11000,Cc1ccccc1-c1ccc(C(=O)NCc2cccnc2)c(NCCc2ccccn2)n1 [{6-(2-methylphenyl)-2-[(2-(2-pyridyl)ethyl)amino](3-pyridyl)}-N-(3-pyridylmethyl)carboxamide]
6,958,CC(=O)NCCNC(=O)c1ccc(-c2ccccc2C#N)nc1NCCc1cccc(F)c1 [N-{2-[(6-(2-cyanophenyl)-2-{[2-(3-fluorophenyl)ethyl]amino}-3-pyridyl)carbonylamino]ethyl}acetamide]
7,52500,NCC(O)c1ccc(-c2ccccc2)nc1NCCc1cccc(F)c1 (stereo not shown) [2-amino-1-(2-{[2-(3-fluorophenyl)ethyl]amino}-6-phenyl(3-pyridyl))ethan-1-ol]
8,598,N#Cc1ccccc1-c1ccc(C(=O)NCc2cc(CN)ccn2)c(NCCc2cccc(F)c2)n1 [N-{[4-(aminomethyl)(2-pyridyl)]methyl}(6-(2-cyanophenyl)-2-{[2-(3-fluorophenyl)ethyl]amino}(3-pyridyl))carboxamide]
9,819,N#Cc1ccccc1-c1ccc(C(=O)NC[C@@H]2CNCC(=O)N2)c(NCCc2cccc(F)c2)n1 [N-[((2S)-6-oxopiperazin-2-yl)methyl](6-(2-cyanophenyl)-2-{[2-(3-fluorophenyl)ethyl]amino}(3-pyridyl))carboxamide]
10,40,"N#Cc1ccccc1-c1ccc(C(=O)NCc2ncco2)c(NCCc2cccc(F)c2)n1 [(6-(2-cyanophenyl)-2-{[2-(3-fluorophenyl)ethyl]amino}(3-pyridyl))-N-(1,3-oxazol-2-ylmethyl)carboxamide]"
11,657,COC(=O)CCC(=O)N1CCC[C@@H]1CNC(=O)c1ccc(-c2ccccc2C#N)nc1NCCc1cccc(F)c1 [methyl 4-((2R)-2-{[(6-(2-cyanophenyl)-2-{[2-(3-fluorophenyl)ethyl]amino}(3-pyridyl))carbonylamino]methyl}pyrrolidinyl)-4-oxobutanoate]
12,9670,N#Cc1ccccc1-c1ccc(C(=O)NCC(=O)NCCC(=O)O)c(NCCc2cccc(F)c2)n1 [3-{2-[(6-(2-cyanophenyl)-2-{[2-(3-fluorophenyl)ethyl]amino}-3-pyridyl)carbonylamino]acetylamino}propanoic acid]
13,65,N#Cc1ccccc1-c1ccc(C(=O)NCc2cccnc2)c(NCCc2ccco2)n1 [{6-(2-cyanophenyl)-2-[(2-(2-furyl)ethyl)amino](3-pyridyl)}-N-(3-pyridylmethyl)carboxamide]
14,233,N#Cc1ccccc1-c1ccc(C(=O)NCc2cccc(Br)n2)c(NCCc2cccc(F)c2)n1 [N-[(6-bromo(2-pyridyl))methyl](6-(2-cyanophenyl)-2-{[2-(3-fluorophenyl)ethyl]amino}(3-pyridyl))carboxamide]
15,323,N#Cc1ccccc1-c1ccc(C(=O)NCc2cncc(CN)c2)c(NCCc2cccc(F)c2)n1 [N-{[5-(aminomethyl)(3-pyridyl)]methyl}(6-(2-cyanophenyl)-2-{[2-(3-fluorophenyl)ethyl]amino}(3-pyridyl))carboxamide]
16,105,N#Cc1[nH]ncc1-c1ccc(C(=O)NCc2cccnc2)c(NCCc2cccc(F)c2)n1 [(6-(5-cyanopyrazol-4-yl)-2-{[2-(3-fluorophenyl)ethyl]amino}(3-pyridyl))-N-(3-pyridylmethyl)carboxamide]
17,603,N#Cc1ccccc1-c1ccc(C(=O)NCc2ncccc2C(F)(F)F)c(NCCc2cccc(F)c2)n1 [(6-(2-cyanophenyl)-2-{[2-(3-fluorophenyl)ethyl]amino}(3-pyridyl))-N-{[3-(trifluoromethyl)(2-pyridyl)]methyl}carboxamide]
18,54,Cc1cccc(CNC(=O)c2ccc(-c3ccccc3C#N)nc2NCCc2cccc(F)c2)n1 [(6-(2-cyanophenyl)-2-{[2-(3-fluorophenyl)ethyl]amino}(3-pyridyl))-N-[(6-methyl(2-pyridyl))methyl]carboxamide]

# Second part, the compound before the results:
row,Compound,IC50 [nM]
1,Nc1ccc(CCNc2nc(-c3ccccc3)ccc2C(=O)NCc2cccnc2)cc1 [(2-{[2-(4-aminophenyl)ethyl]amino}-6-phenyl(3-pyridyl))-N-(3-pyridylmethyl)carboxamide],27100
2,Cn1cc(-c2nc(NCCc3cccc(F)c3)c(C(=O)NC[C@H]3CCCN3C(=O)CCCNC(=O)OC(C)(C)C)cc2Cl)cn1 [N-[((2R)-1-{4-[(tert-butoxy)carbonylamino]butanoyl}pyrrolidin-2-yl)methyl](5-chloro-2-{[2-(3-fluorophenyl)ethyl]amino}-6-(1-methylpyrazol-4-yl)(3-pyridyl))carboxamide],683
3,C=CCNC(=O)c1ccc(-c2ccccc2)nc1NCCc1ccccn1 [{6-phenyl-2-[(2-(2-pyridyl)ethyl)amino](3-pyridyl)}-N-prop-2-enylcarboxamide],3120
4,O=C(Nc1ccncc1)c1ccc(-c2ccccc2)nc1NCCc1ccccn1 [{6-phenyl-2-[(2-(2-pyridyl)ethyl)amino](3-pyridyl)}-N-(4-pyridyl)carboxamide],5210
5,NC(=O)CNC(=O)c1cc(F)c(-c2cn[nH]c2)nc1NCCc1cccc(F)c1 [N-(carbamoylmethyl)(5-fluoro-2-{[2-(3-fluorophenyl)ethyl]amino}-6-pyrazol-4-yl(3-pyridyl))carboxamide],140
6,Cn1cc(-c2nc(NCCc3cccc(F)c3)c(C(=O)NC[C@H]3CCCN3)cc2C#N)cn1 [N-[((2R)pyrrolidin-2-yl)methyl](5-cyano-2-{[2-(3-fluorophenyl)ethyl]amino}-6-(1-methylpyrazol-4-yl)(3-pyridyl))carboxamide],281
7,O=C(NCc1cccnc1)c1cc(Br)c(-c2cn[nH]c2)nc1NCCc1cccc(F)c1 [(5-bromo-2-{[2-(3-fluorophenyl)ethyl]amino}-6-pyrazol-4-yl(3-pyridyl))-N-(3-pyridylmethyl)carboxamide],21
8,Cn1cc(-c2nc(NCCc3cccc(F)c3)c(C(=O)NC[C@H]3CCN3C(=O)CN)cc2F)cn1 [N-{[(2R)-1-(2-aminoacetyl)azetidin-2-yl]methyl}(5-fluoro-2-{[2-(3-fluorophenyl)ethyl]amino}-6-(1-methylpyrazol-4-yl)(3-pyridyl))carboxamide],50
9,COc1ccccc1CCNc1nc(-c2ccccc2)ccc1C(=O)NCc1cccnc1 [(2-{[2-(2-methoxyphenyl)ethyl]amino}-6-phenyl(3-pyridyl))-N-(3-pyridylmethyl)carboxamide],980
10,CC(C)(C)OC(=O)NCCC(=O)N1CCC[C@H](CNC(=O)c2ccc(-c3ccccc3C#N)nc2NCCc2cccc(F)c2)C1 [N-[((3R)-1-{3-[(tert-butoxy)carbonylamino]propanoyl}(3-piperidyl))methyl](6-(2-cyanophenyl)-2-{[2-(3-fluorophenyl)ethyl]amino}(3-pyridyl))carboxamide],3790
11,"O=C(NCc1cccnc1)c1ccc(-c2cccs2)nc1NCCc1cc(F)cc(F)c1 [(2-{[2-(3,5-difluorophenyl)ethyl]amino}-6-(2-thienyl)(3-pyridyl))-N-(3-pyridylmethyl)carboxamide]",97
12,"Cn1cc(-c2nc(NCCc3cccc(F)c3)c(C(=O)NC[C@H]3CCCN3C(=O)[C@H](CCCNC(=O)OC(C)(C)C)NC(=O)OC(C)(C)C)cc2F)cn1 [N-[((2R)-1-{(2S)-2,5-bis[(tert-butoxy)carbonylamino]pentanoyl}pyrrolidin-2-yl)methyl](5-fluoro-2-{[2-(3-fluorophenyl)ethyl]amino}-6-(1-methylpyrazol-4-yl)(3-pyridyl))carboxamide]",19600
13,Cn1cc(-c2nc(NCCc3cccc(F)c3)c(C(=O)NC[C@H]3CCC(=O)N3CCCN)cc2F)cn1 [N-{[(2R)-1-(3-aminopropyl)-5-oxopyrrolidin-2-yl]methyl}(5-fluoro-2-{[2-(3-fluorophenyl)ethyl]amino}-6-(1-methylpyrazol-4-yl)(3-pyridyl))carboxamide],79
14,Cc1cc(C(=O)NC[C@H]2CCC(=O)N2CCCNC(=O)OC(C)(C)C)c(NCCc2cccc(F)c2)nc1-c1ccccc1C#N [N-[3-((5R)-5-{[(6-(2-cyanophenyl)-2-{[2-(3-fluorophenyl)ethyl]amino}-5-methyl(3-pyridyl))carbonylamino]methyl}-2-oxopyrrolidinyl)propyl](tert-butoxy)carboxamide],5370
15,CC[C@H](CNC(=O)c1cc(F)c(-c2cnn(C)c2)nc1NCCc1cccc(F)c1)C(=O)OC [methyl (2R)-2-{[(5-fluoro-2-{[2-(3-fluorophenyl)ethyl]amino}-6-(1-methylpyrazol-4-yl)(3-pyridyl))carbonylamino]methyl}butanoate],117
16,Cn1cc(-c2ccc(C(=O)NC[C@H]3CNCC(=O)N3CCCN)c(NCCc3cccc(F)c3)n2)cn1 [N-{[(2R)-1-(3-aminopropyl)-6-oxopiperazin-2-yl]methyl}(2-{[2-(3-fluorophenyl)ethyl]amino}-6-(1-methylpyrazol-4-yl)(3-pyridyl))carboxamide],3560
